{
  "source": "patent US20010051602A1",
  "about": "“Methods for increasing ApoE levels for the treatment of neurodegenerative disease” (priority 1997, published 2001)",
  "key": {"[1]": {"tested_on": "ApoE", "test": "astrocyte screening assay: secreted ApoE in rat type 1 astrocyte cultures", "format": "cell-based", "details": "for levels of extracellular (secreted) ApoE: astrocyte screening assay", "description": "Other culture systems which may be used include human culture systems of primary cells derived from human tissue or immortalized cell lines of nerve tissue origin such as the human astrocyte cell line, AsCH-7 (Bobryshev et al., 1995). In addition, novel cell lines from patients with various apoE genotypes may be used, as well as cell lines from patients suffering or predisposed to suffer from any of the neurodegenerative diseases described herein. Adult spinal cord from post-mortem patients with any of the above diseases may be used as a source for deriving cell lines of nerve tissue origin. One method of immortalizing cells from these patients is to infect primary tissue with a replication-deficient retrovirus containing DNA sequences encoding the SV40 large T antigen (Whittemore et al., 1994). Another method is to derive immortal human-human hybrid cell lines that express phenotypic characteristics of primary oligodendrocytes or astrocytes by fuising a 6-thioguanine-resistant mutant of the human rhabdomyosarcoma RD cell line with adult human nerve tissue by a lectin-enhanced polyethylene glycol procedure (McLaurin et al., 1995). Other methods for immortalizing cells derived from primary human nerve tissue could include the use of chemical carcinogens or radiation. […] Antibodies to ApoE allow for the design of a high throughput assay using an immunoassay detection method.\n(§1) To verify this working hypothesis, we have examined the effect of various concentration of tacrine on ApoE synthesis and secretion in brain cells in culture. FIG. 5 illustrates the effect of tacrine on ApoE secretion in rat type 1 astrocyte cultures exposed (for 8 hours) to physiological and pharmacological concentrations of the drug. […] Experimental methods used to monitor ApoE levels are described in Bertrand et al., Mol. Brain Res. 33:174-178 (1995)."}, "[2]": {"tested_on": "Alzheimer's disease", "details": "Alzheimer's patients treated for very long periods; cited from earlier work"}, "[3]": {"tested_on": "ApoE", "details": "AD subjects treated with tacrine for several months, N = 4; untreated Alzheimer 0.36", "method": "as §1"}},
  "data": [
    {"smiles": "Nc1c2c(nc3ccccc13)CCCC2", "note": "[tacrine]", "values": [
      {"measurement": "levels of extracellular (secreted) ApoE", "setting": "[1]", "result": "increase"},
      {"measurement": "ApoE secretion in astrocytes", "setting": "[1]; rat type 1 astrocyte cultures exposed for 8 hours, 2 uM, concentration typically found in CSF of treated AD patients", "result": "increases"},
      {"measurement": "delay of institutionalization", "setting": "[2]", "result": "more than 1.5 years"},
      {"measurement": "ApoE Concentration In the Cerebrospinal Fluid (CSF), Mean", "setting": "[3]", "result": 0.41, "unit": "mg/dL"}
    ]},
    {"smiles": "CCCCCCCNC(=O)Oc1ccc2c(c1)[C@]1(C)CCN(C)[C@@H]1N2C", "note": "[heptylphysostigmine]", "values": [
      {"measurement": "levels of extracellular (secreted) ApoE", "setting": "[1]", "result": "increase"}
    ]},
    {"smiles": "COc1cc2c(cc1OC)C(=O)C(CC1CCN(Cc3ccccc3)CC1)C2", "note": "(stereo not drawn) [donepezil]", "values": [
      {"measurement": "levels of extracellular (secreted) ApoE", "setting": "[1]", "result": "no effect"}
    ]}
  ]
}
